pIC50: −log10 of the molar value.
Legend:
c-Raf = c-Raf (Homo sapiens, UniProt P04049); assay: Luciferase-coupled chemiluminescence kinase assay (ATP consumption), c-Raf; type: biochemical; conditions: read-out: cRaf-1 IC50
Experimental: (§1) Tyrosine kinase activity is determined by 1) measurement of kinase-dependent ATP consumption by in the presence of a generic substrate such as […], tyrosine (pEY), by luciferase/luciferin-mediated chemiluminescence or; 2) incorporation of radioactive phosphate derived from ^33P-ATP into a generic substrate which has been adsorbed onto the well surface of polystyrene microtiter plates. Phosphorylated substrate products are quantified by scintillation spectrometry.
(§2) Luciferase-Coupled Chemiluminescence Assay Protocol
(§3) Kinase activity is measured as the percent of ATP consumed following the kinase reaction using luciferase-luciferin-coupled chemiluminescence. Reactions were conducted in 384-well white, medium binding microtiter plates (Greiner). Kinase reactions were initiated by combining test compounds, ATP and kinase in a 20 uL volume. The reaction mixture was incubated at ambient temperature for 3 hrs. For c-Raf, B-Raf, and B-RafV599E, […] of the enzyme was pre-incubated with compound in 20 mM Tris pH 7.5, 10 mM MgCl2, 0.03% TX-100, and 1 mM DTT for 30 minutes at room temperature. Following the kinase reaction, a 20 μL aliquot of luciferase-luciferin mix was added and the chemiluminescence signal measured using a Victor^2 plate reader (Perkin Elmer). The luciferase-luciferin mix contained 50 mM HEPES, pH 7.8, 67 mM oxalic acid (pH 7.8), 5 (or 50) mM DTT, 0.4% Triton X-100, 0.25 mg/mL coenzyme A, 63 μM AMP, 28 μg/mL luciferin and 40,000 units/mL luciferase. Total ATP consumption was limited to 25-60% and the IC50 values correlate well with those determined by radiometric assays.

B-Raf = B-Raf (Homo sapiens, UniProt P15056); assay: Luciferase-coupled chemiluminescence kinase assay (ATP consumption), B-Raf; type: biochemical; conditions: read-out: bRaf IC50
B-Raf, sequence (P15056 whole entry): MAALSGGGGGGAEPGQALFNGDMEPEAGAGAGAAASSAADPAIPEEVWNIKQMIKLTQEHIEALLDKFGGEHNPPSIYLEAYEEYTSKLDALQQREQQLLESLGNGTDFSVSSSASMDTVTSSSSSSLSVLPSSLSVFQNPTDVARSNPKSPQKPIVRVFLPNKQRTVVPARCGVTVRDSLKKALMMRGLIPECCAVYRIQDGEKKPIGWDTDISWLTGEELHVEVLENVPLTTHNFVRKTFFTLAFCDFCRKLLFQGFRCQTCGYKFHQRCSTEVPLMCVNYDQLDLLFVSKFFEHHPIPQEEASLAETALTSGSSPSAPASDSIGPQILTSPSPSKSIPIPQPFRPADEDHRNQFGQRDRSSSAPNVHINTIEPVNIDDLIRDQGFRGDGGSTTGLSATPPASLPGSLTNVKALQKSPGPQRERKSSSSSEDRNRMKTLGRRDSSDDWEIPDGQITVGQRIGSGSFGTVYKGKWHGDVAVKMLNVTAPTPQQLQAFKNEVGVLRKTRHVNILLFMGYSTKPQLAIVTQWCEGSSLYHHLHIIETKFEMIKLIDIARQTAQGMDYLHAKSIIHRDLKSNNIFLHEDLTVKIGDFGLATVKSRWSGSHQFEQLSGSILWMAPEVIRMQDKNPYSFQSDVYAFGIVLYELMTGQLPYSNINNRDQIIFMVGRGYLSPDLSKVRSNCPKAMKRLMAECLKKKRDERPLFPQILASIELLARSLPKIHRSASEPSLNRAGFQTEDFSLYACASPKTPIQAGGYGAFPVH
Experimental: as §1, §2, §3

c-Raf, sequence (P04049 whole entry): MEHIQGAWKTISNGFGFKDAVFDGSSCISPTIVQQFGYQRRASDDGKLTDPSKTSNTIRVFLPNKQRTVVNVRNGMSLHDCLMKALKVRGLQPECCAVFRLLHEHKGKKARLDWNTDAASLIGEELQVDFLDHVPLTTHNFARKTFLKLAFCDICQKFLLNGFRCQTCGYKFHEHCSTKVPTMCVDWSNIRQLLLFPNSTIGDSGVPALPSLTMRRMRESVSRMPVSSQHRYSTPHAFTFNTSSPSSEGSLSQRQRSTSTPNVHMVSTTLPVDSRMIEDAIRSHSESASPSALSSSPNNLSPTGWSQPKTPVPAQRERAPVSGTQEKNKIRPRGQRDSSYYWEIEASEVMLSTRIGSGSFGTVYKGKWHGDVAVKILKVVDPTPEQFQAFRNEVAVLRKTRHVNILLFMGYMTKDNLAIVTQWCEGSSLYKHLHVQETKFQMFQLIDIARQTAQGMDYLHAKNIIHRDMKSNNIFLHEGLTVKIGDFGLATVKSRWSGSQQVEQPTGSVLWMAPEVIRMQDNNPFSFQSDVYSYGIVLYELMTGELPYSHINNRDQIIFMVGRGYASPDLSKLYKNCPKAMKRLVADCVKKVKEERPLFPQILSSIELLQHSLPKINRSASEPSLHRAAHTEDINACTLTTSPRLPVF

SMILES	pIC50 (c-Raf)	pIC50 (B-Raf)
O=C1COc2ccc(C3(O)c4ccccc4C(=O)N3Cc3cccc(OC(F)(F)F)c3)cc2N1 (stereo not drawn) [Entry 56, 6-[1-hydroxy-3-oxo-2-({3-[(trifluoromethyl)oxy]phenyl}methyl)-2,3-dihydro-1H-isoindol-1-yl]-2H-1,4-benzoxazin-3(4H)-one]	≤ 5.00	≤ 5.00
CSc1ccccc1CN1C(=O)c2ccccc2C1(O)c1ccc2c(c1)NC(=O)CO2 (stereo not drawn) [Entry 57, 6-(1-hydroxy-2-{[2-(methylthio)phenyl]methyl}-3-oxo-2,3-dihydro-1H-isoindol-1-yl)-2H-1,4-benzoxazin-3(4H)-one]	≤ 5.00	≤ 5.00
O=C1COc2ccc(C3(O)c4ccccc4C(=O)N3c3ccc(F)c(F)c3)cc2N1 (stereo not drawn) [Entry 58, 6-[2-(3,4-difluorophenyl)-1-hydroxy-3-oxo-2,3-dihydro-1H-isoindol-1-yl]-2H-1,4-benzoxazin-3(4H)-one]	5.00 to 6.00	5.00 to 6.00
CC(C)c1cccc(N2C(=O)c3ccccc3C2(O)c2ccc3c(c2)NC(=O)CO3)c1 (stereo not drawn) [Entry 59, 6-{1-hydroxy-2-[3-(1-methylethyl)phenyl]-3-oxo-2,3-dihydro-1H-isoindol-1-yl}-2H-1,4-benzoxazin-3(4H)-one]	6.00 to 7.00	6.00 to 7.00
O=C1COc2ccc(C3(O)c4ccccc4C(=O)N3c3cccc(OC(F)(F)F)c3)cc2N1 (stereo not drawn) [Entry 60, 6-(1-hydroxy-3-oxo-2-{3-[(trifluoromethyl)oxy]phenyl}-2,3-dihydro-1H-isoindol-1-yl)-2H-1,4-benzoxazin-3(4H)-one]	≤ 5.00	≤ 5.00
O=C1COc2ccc(C3(O)c4ccccc4C(=O)N3c3cccc(C(F)(F)F)c3)cc2N1 (stereo not drawn) [Entry 61, 6-{1-hydroxy-3-oxo-2-[3-(trifluoromethyl)phenyl]-2,3-dihydro-1H-isoindol-1-yl}-2H-1,4-benzoxazin-3(4H)-one]	6.00 to 7.00	5.00 to 6.00
NS(=O)(=O)c1cccc(N2C(=O)c3ccccc3C2(O)c2ccc3c(c2)NC(=O)CO3)c1 (stereo not drawn) [Entry 62, 3-[1-hydroxy-3-oxo-1-(3-oxo-3,4-dihydro-2H-1,4-benzoxazin-6-yl)-1,3-dihydro-2H-isoindol-2-yl]benzenesulfonamide]	5.00 to 6.00	≤ 5.00
COc1ccc(Cl)cc1N1C(=O)c2ccccc2C1(O)c1ccc2c(c1)NC(=O)CO2 (stereo not drawn) [Entry 63, 6-{2-[5-chloro-2-(methyloxy)phenyl]-1-hydroxy-3-oxo-2,3-dihydro-1H-isoindol-1-yl}-2H-1,4-benzoxazin-3(4H)-one]	≤ 5.00	5.00 to 6.00
O=C1COc2ccc(C3(O)c4ccccc4C(=O)N3c3ccc(F)c(C(F)(F)F)c3)cc2N1 (stereo not drawn) [Entry 64, 6-{2-[4-fluoro-3-(trifluoromethyl)phenyl]-1-hydroxy-3-oxo-2,3-dihydro-1H-isoindol-1-yl}-2H-1,4-benzoxazin-3(4H)-one]	≤ 5.00	≤ 5.00
O=C1c2ccccc2C(O)(c2ccc3cc[nH]c3c2)N1Cc1ccccc1 (stereo not drawn) [Entry 65, 3-hydroxy-3-(1H-indol-6-yl)-2-(phenylmethyl)-2,3-dihydro-1H-isoindol-1-one]	≤ 5.00	≤ 5.00
O=C1COc2ccc(C3(O)c4ccccc4C(=O)N3c3cc(F)cc(I)c3)cc2N1 (stereo not drawn) [Entry 66, 6-[2-(3-fluoro-5-iodophenyl)-1-hydroxy-3-oxo-2,3-dihydro-1H-isoindol-1-yl]-2H-1,4-benzoxazin-3(4H)-one]	5.00 to 6.00	5.00 to 6.00
Nc1cccc(N2C(=O)c3ccccc3C2(O)c2ccc3c(c2)NC(=O)CO3)c1 (stereo not drawn) [Entry 67, 6-[2-(3-aminophenyl)-1-hydroxy-3-oxo-2,3-dihydro-1H-isoindol-1-yl]-2H-1,4-benzoxazin-3(4H)-one]	6.00 to 7.00	6.00 to 7.00
O=C1COc2ccc(C3(O)c4ccccc4C(=O)N3c3cc(F)cc(F)c3)cc2N1 (stereo not drawn) [Entry 68, 6-[2-(3,5-difluorophenyl)-1-hydroxy-3-oxo-2,3-dihydro-1H-isoindol-1-yl]-2H-1,4-benzoxazin-3(4H)-one]	5.00 to 6.00	5.00 to 6.00
CS(=O)(=O)c1cccc(N2C(=O)c3ccccc3C2(O)c2ccc3c(c2)NC(=O)CO3)c1 (stereo not drawn) [Entry 69, 6-{1-hydroxy-2-[3-(methylsulfonyl)phenyl]-3-oxo-2,3-dihydro-1H-isoindol-1-yl}-2H-1,4-benzoxazin-3(4H)-one]	≤ 5.00	≤ 5.00
CCOC(=O)c1cccc(N2C(=O)c3ccccc3C2(O)c2ccc3c(c2)NC(=O)CO3)c1 (stereo not drawn) [Entry 70, ethyl 3-[1-hydroxy-3-oxo-1-(3-oxo-3,4-dihydro-2H-1,4-benzoxazin-6-yl)-1,3-dihydro-2H-isoindol-2-yl]benzoate]	≤ 5.00	≤ 5.00
N#Cc1cccc(N2C(=O)c3ccccc3C2(O)c2ccc3c(c2)NC(=O)CO3)c1 (stereo not drawn) [Entry 71, 3-[1-hydroxy-3-oxo-1-(3-oxo-3,4-dihydro-2H-1,4-benzoxazin-6-yl)-1,3-dihydro-2H-isoindol-2-yl]benzonitrile]	5.00 to 6.00	5.00 to 6.00
O=C1COc2ccc(C3(O)c4ccccc4C(=O)N3c3ccccc3Cl)cc2N1 (stereo not drawn) [Entry 72, 6-[2-(2-chlorophenyl)-1-hydroxy-3-oxo-2,3-dihydro-1H-isoindol-1-yl]-2H-1,4-benzoxazin-3(4H)-one]	5.00 to 6.00	5.00 to 6.00
Nc1cc(Cl)cc(N2C(=O)c3ccccc3C2(O)c2ccc3c(c2)NC(=O)CO3)c1 (stereo not drawn) [Entry 73, 6-[2-(3-amino-5-chlorophenyl)-1-hydroxy-3-oxo-2,3-dihydro-1H-isoindol-1-yl]-2H-1,4-benzoxazin-3(4H)-one]	> 7.00	> 7.00
Cc1ccc(Cl)cc1N1C(=O)c2ccccc2C1(O)c1ccc2c(c1)NC(=O)CO2 (stereo not drawn) [Entry 74, 6-[2-(5-chloro-2-methylphenyl)-1-hydroxy-3-oxo-2,3-dihydro-1H-isoindol-1-yl]-2H-1,4-benzoxazin-3(4H)-one]	> 7.00	> 7.00
Cc1c(Cl)cccc1N1C(=O)c2ccccc2C1(O)c1ccc2c(c1)NC(=O)CO2 (stereo not drawn) [Entry 75, 6-[2-(3-chloro-2-methylphenyl)-1-hydroxy-3-oxo-2,3-dihydro-1H-isoindol-1-yl]-2H-1,4-benzoxazin-3(4H)-one]	6.00 to 7.00	6.00 to 7.00
CCc1cccc(N2C(=O)c3ccccc3C2(O)c2ccc3c(c2)NC(=O)CO3)c1 (stereo not drawn) [Entry 76, 6-[2-(3-ethylphenyl)-1-hydroxy-3-oxo-2,3-dihydro-1H-isoindol-1-yl]-2H-1,4-benzoxazin-3(4H)-one]	6.00 to 7.00	6.00 to 7.00
C#Cc1cccc(N2C(=O)c3ccccc3C2(O)c2ccc3c(c2)NC(=O)CO3)c1 (stereo not drawn) [Entry 77, 6-[2-(3-ethynylphenyl)-1-hydroxy-3-oxo-2,3-dihydro-1H-isoindol-1-yl]-2H-1,4-benzoxazin-3(4H)-one]	6.00 to 7.00	6.00 to 7.00
O=C1COc2ccc(C3(O)c4ccccc4C(=O)N3c3cccc(O)c3)cc2N1 (stereo not drawn) [Entry 78, 6-[1-hydroxy-2-(3-hydroxyphenyl)-3-oxo-2,3-dihydro-1H-isoindol-1-yl]-2H-1,4-benzoxazin-3(4H)-one]	5.00 to 6.00	5.00 to 6.00
O=C1COc2ccc(C3(O)c4ccccc4C(=O)N3c3cccc(Oc4ccccc4)c3)cc2N1 (stereo not drawn) [Entry 79, 6-{1-hydroxy-3-oxo-2-[3-(phenyloxy)phenyl]-2,3-dihydro-1H-isoindol-1-yl}-2H-1,4-benzoxazin-3(4H)-one]	6.00 to 7.00	5.00 to 6.00
O=C1COc2ccc(C3(O)c4ccccc4C(=O)N3c3cccc(OCc4ccccc4)c3)cc2N1 (stereo not drawn) [Entry 80, 6-(1-hydroxy-3-oxo-2-{3-[(phenylmethyl)oxy]phenyl}-2,3-dihydro-1H-isoindol-1-yl)-2H-1,4-benzoxazin-3(4H)-one]	≤ 5.00	≤ 5.00
NC(=O)c1cccc(N2C(=O)c3ccccc3C2(O)c2ccc3c(c2)NC(=O)CO3)c1 (stereo not drawn) [Entry 81, 3-[1-hydroxy-3-oxo-1-(3-oxo-3,4-dihydro-2H-1,4-benzoxazin-6-yl)-1,3-dihydro-2H-isoindol-2-yl]benzamide]	5.00 to 6.00	5.00 to 6.00
O=C1COc2ccc(C3(O)c4ccccc4C(=O)N3c3cccc(CO)c3)cc2N1 (stereo not drawn) [Entry 82, 6-{1-hydroxy-2-[3-(hydroxymethyl)phenyl]-3-oxo-2,3-dihydro-1H-isoindol-1-yl}-2H-1,4-benzoxazin-3(4H)-one]	5.00 to 6.00	5.00 to 6.00
O=C1COc2ccc(C3(O)c4ccccc4C(=O)N3c3ccccc3F)cc2N1 (stereo not drawn) [Entry 83, 6-[2-(2-fluorophenyl)-1-hydroxy-3-oxo-2,3-dihydro-1H-isoindol-1-yl]-2H-1,4-benzoxazin-3(4H)-one]	5.00 to 6.00	6.00 to 7.00
CNc1nc2cc(C3(O)c4ccccc4C(=O)N3Cc3ccccc3)ccc2[nH]1 (stereo not drawn) [Entry 84, 3-hydroxy-3-[2-(methylamino)-1H-benzimidazol-5-yl]-2-(phenylmethyl)-2,3-dihydro-1H-isoindol-1-one]	5.00 to 6.00	5.00 to 6.00
O=C1COc2ccc(C3(O)c4ccccc4C(=O)N3c3cccc(-c4ccccc4)c3)cc2N1 (stereo not drawn) [Entry 85, 6-(2-biphenyl-3-yl-1-hydroxy-3-oxo-2,3-dihydro-1H-isoindol-1-yl)-2H-1,4-benzoxazin-3(4H)-one]	≤ 5.00	≤ 5.00
